Results: patent publication US9586931B2 (Merck Sharp & Dohme Corp., priority 2012, dated 2017)

target: T1, recombinant human GST-Syk (Homo sapiens, UniProt P43405); experiment: Homogeneous Time-Resolved Fluorescence (HTRF) assay for the recombinant human Syk enzyme; type: biochemical; conditions: recombinant human GST-Syk 5 pM, ATP 25 μM, 10-dose titration 10 μM to 0.508 nM; read-out: rhSYK Activity IC50
T1 construct: purchased Carna Biosciences 08-176
Outline: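 Detection used time-resolved fluorescence 30 min after adding a quench mix (40 mM EDTA, 15 mM Tris pH 7.5, 0.01% Tween 20) containing 2 nM Europium anti-pTyr antibody and 70 nM streptavidin-APC. This followed 45 min of room-temperature peptide phosphorylation by recombinant GST-tagged human Syk.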

Row | SMILES | IC50
1 | Cc1cc(Nc2cc(C(F)(F)F)ccn2)nc(-c2cn(C(CO)c3ccc(C(=O)O)cc3)nn2)c1 (stereo not shown) [Example 3.17, 4-{2-hydroxy-1-[4-(4-methyl-6-{[4-(trifluoromethyl)pyridin-2-yl]amino}pyridin-2-yl)-1H-1,2,3-triazol-1-yl]ethyl}benzoic acid] | 0.1 nM
2 | Cc1cc(Nc2cc(C(F)(F)F)ccn2)nc(-c2cn(CC(O)c3ccc(C(=O)O)cc3)nn2)c1 (stereo not shown) [Example 3.18, 4-{1-hydroxy-2-[4-(4-methyl-6-{[4-(trifluoromethyl)pyridin-2-yl]amino}pyridin-2-yl)-1H-1,2,3-triazol-1-yl]ethyl}benzoic acid] | 1.9 nM
3 | Cc1cc(Nc2cc(C(F)(F)F)ccn2)nc(-c2cn(C3CCC(C(=O)O)c4ccccc43)nn2)c1 (stereo not shown) [Example 3.19, 4-[4-(4-methyl-6-{[4-(trifluoromethyl)pyridin-2-yl]amino}pyridin-2-yl)-1H-1,2,3-triazol-1-yl]-1,2,3,4-tetrahydronaphthalene-1-carboxylic acid] | 16 nM
4 | Cc1cc(Nc2cc(C(F)(F)F)ccn2)nc(-c2cn(C(C)C(O)CC#N)nn2)c1 (stereo not shown) [Example 4.2, 3-hydroxy-4-[4-(4-methyl-6-{[4-(trifluoromethyl)pyridin-2-yl]amino}pyridin-2-yl)-1H-1,2,3-triazol-1-yl]pentanenitrile] | 12.8 nM
5 | Cc1cc(Nc2cc(C(F)(F)F)ccn2)nc(-c2cn(C(C)C(O)CC#N)nn2)c1 (stereo not shown) [Example 4.3, 3-hydroxy-4-[4-(4-methyl-6-{[4-(trifluoromethyl)pyridin-2-yl]amino}pyridin-2-yl)-1H-1,2,3-triazol-1-yl]pentanenitrile] | 4.6 nM
6 | Cc1cc(Nc2cc(C(F)(F)F)ccn2)nc(-c2cn(C(C)C(O)CC#N)nn2)c1 (stereo not shown) [Example 4.10, 3-hydroxy-4-[4-(4-methyl-6-{[4-(trifluoromethyl)pyridin-2-yl]amino}pyridin-2-yl)-1H-1,2,3-triazol-1-yl]pentanenitrile] | 5.7 nM
7 | COC(=O)C1CCC(O)(Cn2cc(-c3cc(C)cc(Nc4nccc(C(F)(F)F)n4)c3)nn2)CC1(C)C (stereo not shown) [Example 4.11, methyl 4-hydroxy-2,2-dimethyl-4-{[4-(3-methyl-5-{[4-(trifluoromethyl)pyrimidin-2-yl]amino}phenyl)-1H-1,2,3-triazol-1-yl]methyl}cyclohexanecarboxylate] | 145 nM
8 | COC(=O)C1CCC(O)(Cn2cc(-c3cc(C)cc(Nc4cc(C(F)(F)F)ccn4)n3)nn2)CC1(C)C (stereo not shown) [Example 4.12, methyl 4-hydroxy-2,2-dimethyl-4-{[4-(4-methyl-6-{[4-(trifluoromethyl)pyridin-2-yl]amino}pyridin-2-yl)-1H-1,2,3-triazol-1-yl]methyl}cyclohexanecarboxylate] | 145 nM
9 | Cc1cc(Nc2cc(C(F)(F)F)ccn2)nc(-c2cn(CC3(O)CCOCC3)nn2)c1 [Example 4.13, 4-{[4-(4-methyl-6-{[4-(trifluoromethyl)pyridin-2-yl]amino}pyridin-2-yl)-1H-1,2,3-triazol-1-yl]methyl}tetrahydro-2H-pyran-4-ol] | 25.6 nM
10 | Cc1cc(Nc2nccc(C(F)(F)F)n2)cc(-c2cn(CC3(O)CCOCC3)nn2)c1 [Example 4.14, 4-{[4-(3-methyl-5-{[4-(trifluoromethyl)pyrimidin-2-yl]amino}phenyl)-1H-1,2,3-triazol-1-yl]methyl}tetrahydro-2H-pyran-4-ol] | 48.1 nM
11 | Cc1cc(Nc2cc(C(F)(F)F)ccn2)nc(-c2cn(C3CNCC3O)nn2)c1 (stereo not shown) [Example 4.15, 4-[4-(4-methyl-6-{[4-(trifluoromethyl)pyridin-2-yl]amino}pyridin-2-yl)-1H-1,2,3-triazol-1-yl]pyrrolidin-3-ol] | 32.9 nM
12 | COC(=O)c1ccc(C(CO)n2cc(-c3cc(C)cc(Nc4cc(C(F)(F)F)ccn4)n3)nn2)cc1 (stereo not shown) [Example 4.16, methyl 4-{2-hydroxy-1-[4-(4-methyl-6-{[4-(trifluoromethyl)pyridin-2-yl]amino}pyridin-2-yl)-1H-1,2,3-triazol-1-yl]ethyl}benzoate] | 40.3 nM
13 | COC(=O)c1ccc(C(O)Cn2cc(-c3cc(C)cc(Nc4cc(C(F)(F)F)ccn4)n3)nn2)cc1 (stereo not shown) [Example 4.17, methyl 4-{1-hydroxy-2-[4-(4-methyl-6-{[4-(trifluoromethyl)pyridin-2-yl]amino}pyridin-2-yl)-1H-1,2,3-triazol-1-yl]ethyl}benzoate] | 26.6 nM
14 | Cc1cc(Nc2cc(C(F)(F)F)ccn2)nc(-c2cn(CC(C)(O)C(=O)O)nn2)c1 (stereo not shown) [Example 4.18, 2-hydroxy-2-methyl-3-[4-(4-methyl-6-{[4-(trifluoromethyl)pyridin-2-yl]amino}pyridin-2-yl)-1H-1,2,3-triazol-1-yl]propanoic acid] | 26.6 nM
15 | Cc1cc(Nc2cc(C(F)(F)F)ccn2)nc(-c2cn(C[C@H](O)C(=O)O)nn2)c1 [Example 4.19, (2S)-2-hydroxy-3-[4-(4-methyl-6-{[4-(trifluoromethyl)pyridin-2-yl]amino}pyridin-2-yl)-1H-1,2,3-triazol-1-yl]propanoic acid] | 14.9 nM
16 | Cc1cc(Nc2cc(C(F)(F)F)ccn2)nc(-c2cn(C[C@]3(O)C[C@H](C#N)C3)nn2)c1 [Example 4.26, trans-3-hydroxy-3-{[4-(4-methyl-6-{[4-(trifluoromethyl)pyridin-2-yl]amino}pyridin-2-yl)-1H-1,2,3-triazol-1-yl]methyl}cyclobutanecarbonitrile] | 0.7 nM
17 | Cc1cc(Nc2nccc(C(F)F)n2)cc(-c2cn(C3CCCCC3O)nn2)c1 (stereo not shown) [Example 4.34] | 4.1 nM
18 | Cc1cc(Nc2nccc(C(F)F)n2)cc(-c2cn(C3CCCCC3O)nn2)c1 (stereo not shown) [Example 4.35, 2-[4-(3-{[4-(difluoromethyl)pyrimidin-2-yl]amino}-5-methylphenyl)-1H-1,2,3-triazol-1-yl]cyclohexanol] | 11 nM

The remaining lines, values ahead:

Row | IC50 | SMILES
19 | 17 nM | Cc1cc(Nc2cc(C(F)(F)F)ccn2)nc(-c2cn(C[C@@H](O)C(=O)O)nn2)c1 [Example 4.20, (2R)-2-hydroxy-3-[4-(4-methyl-6-{[4-(trifluoromethyl)pyridin-2-yl]amino}pyridin-2-yl)-1H-1,2,3-triazol-1-yl]propanoic acid]
20 | 3 nM | Cc1cc(Nc2cc(C(F)(F)F)ccn2)nc(-c2cn(CC(O)CN)nn2)c1 (stereo not shown) [Example 4.22, 1-amino-3-[4-(4-methyl-6-{[4-(trifluoromethyl)pyridin-2-yl]amino}pyridin-2-yl)-1H-1,2,3-triazol-1-yl]propan-2-ol]
21 | 5.4 nM | COCC(O)Cn1cc(-c2cc(C)cc(Nc3cc(C(F)(F)F)ccn3)n2)nn1 (stereo not shown) [Example 4.23, 1-methoxy-3-[4-(4-methyl-6-{[4-(trifluoromethyl)pyridin-2-yl]amino}pyridin-2-yl)-1H-1,2,3-triazol-1-yl]propan-2-ol]
22 | 8.3 nM | Cc1cc(Nc2cc(C(F)(F)F)ccn2)nc(-c2cn(CC(O)C(C)C)nn2)c1 (stereo not shown) [Example 4.24, 3-methyl-1-[4-(4-methyl-6-{[4-(trifluoromethyl)pyridin-2-yl]amino}pyridin-2-yl)-1H-1,2,3-triazol-1-yl]butan-2-ol]
23 | 12.1 nM | Cc1cc(Nc2cc(C(F)(F)F)ccn2)nc(-c2cn(CC(O)C(C)(C)C)nn2)c1 (stereo not shown) [Example 4.25, 3,3-dimethyl-1-[4-(4-methyl-6-{[4-(trifluoromethyl)pyridin-2-yl]amino}pyridin-2-yl)-1H-1,2,3-triazol-1-yl]butan-2-ol]
24 | 2 nM | Cc1cc(Nc2cc(C(F)(F)F)ccn2)nc(-c2cn(CC3(O)CCC3)nn2)c1 [Example 4.27, 1-{[4-(4-methyl-6-{[4-(trifluoromethyl)pyridin-2-yl]amino}pyridin-2-yl)-1H-1,2,3-triazol-1-yl]methyl}cyclobutanol]
25 | 6.6 nM | Cc1cc(Nc2cc(C(F)(F)F)ccn2)nc(-c2cn(CC(O)Cn3cccn3)nn2)c1 (stereo not shown) [Example 4.28, 1-[4-(4-methyl-6-{[4-(trifluoromethyl)pyridin-2-yl]amino}pyridin-2-yl)-1H-1,2,3-triazol-1-yl]-3-(1H-pyrazol-1-yl)propan-2-ol]
26 | 8.2 nM | Cc1cc(Nc2cc(C(F)(F)F)ccn2)nc(-c2cn(CC3(O)CCS(=O)(=O)CC3)nn2)c1 [Example 4.29, 4-{[4-(4-methyl-6-{[4-(trifluoromethyl)pyridin-2-yl]amino}pyridin-2-yl)-1H-1,2,3-triazol-1-yl]methyl}tetrahydro-2H-thiopyran-4-ol 1,1-dioxide]
27 | 26.6 nM | Cc1cc(Nc2cc(C(F)(F)F)ccn2)nc(-c2cn(CC(O)CN3CCCC3=O)nn2)c1 (stereo not shown) [Example 4.30, 1-{2-hydroxy-3-[4-(4-methyl-6-{[4-(trifluoromethyl)pyridin-2-yl]amino}pyridin-2-yl)-1H-1,2,3-triazol-1-yl]propyl}pyrrolidin-2-one]
28 | 8.1 nM | CCC(O)(CC)Cn1cc(-c2cc(C)cc(Nc3cc(C(F)(F)F)ccn3)n2)nn1 [Example 4.31, 3-{[4-(4-methyl-6-{[4-(trifluoromethyl)pyridin-2-yl]amino}pyridin-2-yl)-1H-1,2,3-triazol-1-yl]methyl}pentan-3-ol]
29 | 4.8 nM | Cc1cc(Nc2cc(C(F)(F)F)ccn2)nc(-c2cn(CC(O)COCC(F)(F)F)nn2)c1 (stereo not shown) [Example 4.32, 1-[4-(4 methyl-6-{[4-(trifluoromethyl)pyridin-2-yl]amino}pyridin-2-yl)-1H-1,2,3-triazol-1-yl]-3-(2,2,2-trifluoroethoxy)propan-2-ol]
30 | 14.9 nM | Cc1cc(Nc2cc(C(F)(F)F)ccn2)nc(-c2cn(CC(O)CN3CCOC3=O)nn2)c1 (stereo not shown) [Example 4.33, 3-{2-hydroxy-3-[4-(4-methyl-6-{[4-(trifluoromethyl)pyridin-2-yl]amino}pyridin-2-yl)-1H-1,2,3-triazol-1-yl]propyl}-1,3-oxazolidin-2-one]
31 | 14.9 nM | Cc1cc(Nc2nccc(C(F)(F)F)n2)cc(-c2cn(CCO)nn2)c1 [Example 5.1, 2-(4-(3-Methyl-5-((4-(trifluoromethyl)pyrimidin-2-yl)amino)phenyl)-1H-1,2,3-triazol-1-yl)ethanol]
